{"source": "patent US20110082119A1", "about": "“PROPHYLACTIC/AMELIORATING OR THERAPEUTIC AGENT FOR NON-ALCOHOLIC STEATOHEPATITIS” (priority 2008, published 2011)", "key": {"NASH patient": {"tested_on": "NASH patient", "settings": "cited from earlier work"}, "[1]": {"tested_on": "db/db mouse fed with MCD diet (NASH-like lesion in the liver)", "test": "Effectiveness in methionine-choline deficient diet diabetes model mouse", "assay_type": "in vivo", "settings": "MCD diet 2 weeks, compared to the control group; for plasma ALT / plasma FFA amount: oral once a day, EPA-E 1000 mg/kg, metformin hydrochloride 80 mg/kg", "method": "Pharmacological action of EPA-E and/or metformin hydrochloride or olmesartan medoxomil for liver disorder and fibrosis is confirmed by using diabetes model rats that have been fed with MCD diet known to induce a NASH-like lesion in the liver.\n7 week old male db/db mouse (Charles River Japan) is allowed to freely take normal diet (F-1, Funabashi Farm) or MCD diet (Dyets, Inc.) for 2 weeks under 12 hour light-dark cycles at 23° C. […] The administration is conducted orally once a day. The normal group and the control group are orally administered with 5% aqueous solution of gum arabic once a day. After 2 weeks, HOMA-IR is measured and blood is collected for biochemical test of the plasma."}, "[2]": {"tested_on": "rats fed with methionine-choline-deficient diet (NASH-like lesion in the liver)", "assay_type": "in vivo", "settings": "MCD diet 20 weeks, compared to the control group; for plasma ALT / plasma AST: oral once a day; for plasma ALT: EPA-E 1000, metformin hydrochloride 40, acetylsalicylic acid 20, simvastatin 5, valsartan 20 mg/kg; for plasma AST: EPA-E 1000 mg/kg, acetylsalicylic acid 20 mg/kg", "method": "Pharmacological action of EPA-E and/or metformin hydrochloride, acetylsalicylic acid, simvastatin, or valsartan on liver disorder and fibrosis is confirmed by using rats that have been fed with methionine-choline-deficient diet (hereinafter referred to as “MCD diet”) known to develop a NASH-like lesion in the liver.\n7 week old male Wister rats are allowed to freely take normal diet (F-1, Funabashi Farm) or MCD diet (Dyets, Inc.) for 20 weeks under 12 hour light-dark cycles at 23° C. […] The administration is conducted orally once a day. The normal group and the control group are orally administered with 5% aqueous solution of gum arabic once a day. After 20 weeks, blood is collected for biochemical tests of the plasma, and pathological tests of the liver are also conducted."}, "[3]": {"tested_on": "SD rat fed with high-fat high-sucrose diet", "test": "Effectiveness in high fat diet-fed rat", "assay_type": "in vivo", "settings": "HF diet 4 weeks", "method": "4 week old male SD rat is allowed to freely take normal diet (F-1, Funabashi Farm) or high-fat high-sucrose diet (TD88137, Harlan Teklad, hereinafter referred to as “HF diet”) for 4 weeks under 12 hour light-dark cycles at 23° C. […] The administration is conducted orally once a day. The normal group and the control group are orally administered with 5% aqueous solution of gum arabic once a day. After 4 weeks, blood is collected for determining neutrophil count and conduct biochemical tests of the plasma."}, "NASH patients": {"tested_on": "NASH patients", "test": "Administration to patients with the definitive diagnosis of NASH for one year", "assay_type": "in vivo, human", "method": "Patients with the definitive diagnosis of NASH are divided into 8 groups (each group consisting of 15 patients). EPA-E group is administered with Epadel S (Registered Trademark) 900 (containing 900 mg of EPA-E) twice a day. […] Administration of the Melbin (Registered Trademark) tablet is started from once a day, the dose is adequately adjusted depending on the conditions of the patient, and after 5 weeks from the start of the administration, the dose may be increased to twice a day, and after 9 weeks from the start of the administration, the dose may be increased to 3 times a day. The dose is adequately adjusted depending on the conditions of the patient. […] Administration of the Bayaspirin (Registered Trademark) tablet is started from twice a day at 10 tablet in total, and after 5 weeks from the start of the administration, the dose is reduced to once a day at 1 tablet in total. The dose is adequately adjusted depending on the conditions of the patient. […] Candesartan group is administered with Blopress (Registered Trademark) tablet 2 (containing 2 mg of candesartan cilexetil), and candesartan combination group is administered with Blopress (Registered Trademark) tablet 2 and Epadel S (Registered Trademark) 900 twice a day. Administration of the Mevalotin (Registered Trademark) tablet 5 and Blopress (Registered Trademark) tablet 2 is started from 1 tablet once a day, and after 5 weeks from the start of the administration, the dose is increased to twice a day at 2 tablets in total, and after 9 weeks from the start of the administration, the dose is further increased to twice a day at 4 tablets in total. The dose is adequately adjusted depending on the conditions of the patient. Criteria, monitoring, histological tests, statistical analysis of the patients are conducted according to the methods described in Am. J. Gastroenterol. 2001; 96: 2711-2717. Measurement of blood neutrophil count and HOMA-IR, blood biochemical tests such as ALT and AST are occasionally conducted during the administration period of one year, and liver biopsy is conducted after completing the administration for histological evaluation."}, "[4]": {"settings": "NASH patient also suffering from hypertension, oral 50 mg/day for 48 weeks, Non-Patent Literature 9"}, "[5]": {"settings": "NASH patient, oral 1500 mg/day for 4 months, Non-Patent Literature 4"}, "[6]": {"settings": "oral once a day, compared to the control group, EPA-E 1000 mg/kg, atorvastatin calcium hydrate 10 mg/kg"}, "[7]": {"settings": "EPA-E 1000 mg/kg oral once a day"}, "[8]": {"settings": "administration period of one year, EPA-E group (Epadel S 900 twice a day) compared to the measurements before the treatment"}, "[9]": {"settings": "one year, Epadel S 900 (900 mg EPA-E) twice a day, compared to the measurements before the treatment"}}, "note": "Counter-ions that a name gives are not always drawn.", "data": [{"smiles": "CCCCc1nc(Cl)c(CO)n1Cc1ccc(-c2ccccc2-c2nn[nH]n2)cc1", "note": "[losartan]", "values": [{"measurement": "ALT", "setting": "NASH patient; [4]", "result": "improvement"}, {"measurement": "ferritin", "setting": "NASH patient; [4]", "result": "improvement"}, {"measurement": "type IV collagen", "setting": "NASH patient; [4]", "result": "improvement"}]}, {"smiles": "CN(C)C(=N)N=C(N)N", "note": "[metformin, metformin hydrochloride]", "values": [{"measurement": "lactic acid level", "setting": "NASH patient; [5]", "result": "significant increase"}, {"measurement": "serum alanine aminotransferase (ALT) level", "setting": "NASH patient; [5]", "result": "significant decrease"}, {"measurement": "HOMA-IR", "setting": "[1]; metformin hydrochloride 80 mg/kg oral once a day", "result": "improved"}, {"measurement": "plasma ALT", "setting": "[1]", "result": "suppressed increase"}, {"measurement": "plasma FFA amount", "setting": "[1]", "result": "suppressed increase"}, {"measurement": "plasma ALT", "setting": "[2]", "result": "suppression of the increase"}]}, {"smiles": "CCCCC(=O)N(Cc1ccc(-c2ccccc2-c2nnn[nH]2)cc1)[C@H](C(=O)O)C(C)C", "note": "[valsartan]", "values": [{"measurement": "plasma ALT", "setting": "[2]", "result": "suppression of the increase"}]}, {"smiles": "CC/C=C\\C/C=C\\C/C=C\\C/C=C\\C/C=C\\CCCC(=O)OCC", "note": "[EPA-E, ethyl icosapentate]", "values": [{"measurement": "NASH (AST or ALT enzyme, inflammatory cytokine or oxidative stress marker, liver biopsy)", "setting": "NASH patient; 2700 mg/day of high purity EPA-E for 12 months, Tanaka et al., Non-Patent Literature 3", "result": "amelioration of NASH was demonstrated"}, {"measurement": "IL-6", "setting": "[3]; [6]", "result": "suppressed increase"}, {"measurement": "TNFα", "setting": "[3]; [6]", "result": "suppressed increase"}, {"measurement": "ferritin", "setting": "[3]; [6]", "result": "suppressed increase"}, {"measurement": "high sensitivity CPR", "setting": "[3]; [6]", "result": "suppressed increase"}, {"measurement": "neutrophil count", "setting": "[3]; [6]", "result": "suppressed increase"}, {"measurement": "plasma ALT", "setting": "[3]; [6]", "result": "suppressed increase"}, {"measurement": "plasma AST", "setting": "[3]; [6]", "result": "suppressed increase"}, {"measurement": "thioredoxin", "setting": "[3]; [6]", "result": "suppressed increase"}, {"measurement": "type IV collagen", "setting": "[3]; [6]", "result": "suppressed increase"}, {"measurement": "TNFα", "setting": "[1]; [7]", "result": "suppressed increase"}, {"measurement": "plasma AST", "setting": "[1]; [7]", "result": "suppressed increase"}, {"measurement": "plasma TIMP-1", "setting": "[1]; [7]", "result": "suppressed increase"}, {"measurement": "plasma adiponectin amount", "setting": "[1]; [7]", "result": "suppressed decrease"}, {"measurement": "plasma hyaluronic acid", "setting": "[1]; [7]", "result": "suppressed increase"}, {"measurement": "plasma type IV collagen", "setting": "[1]; [7]", "result": "suppressed increase"}, {"measurement": "plasma ALT", "setting": "[1]", "result": "suppressed increase"}, {"measurement": "plasma FFA amount", "setting": "[1]", "result": "suppressed increase"}, {"measurement": "AST", "setting": "NASH patients; [8]", "result": "decrease"}, {"measurement": "HOMA-IR", "setting": "NASH patients; [8]", "result": "improved"}, {"measurement": "IL-6", "setting": "NASH patients; [8]", "result": "decrease"}, {"measurement": "TNFα", "setting": "NASH patients; [8]", "result": "decrease"}, {"measurement": "adiponectin", "setting": "NASH patients; [8]", "result": "increases"}, {"measurement": "ferritin", "setting": "NASH patients; [8]", "result": "decrease"}, {"measurement": "fibrosis marker", "setting": "NASH patients; [8]", "result": "decrease"}, {"measurement": "high sensitivity CPR", "setting": "NASH patients; [8]", "result": "decrease"}, {"measurement": "thioredoxin", "setting": "NASH patients; [8]", "result": "decrease"}, {"measurement": "pathological test image of the liver tissue, overall rating of fat accumulation grade, inflammation grade and fibrosis stage by Brunt method", "setting": "NASH patients; liver biopsy after one year, EPA-E group compared to the condition before the administration", "result": "improves"}, {"measurement": "AZT", "setting": "NASH patients; [9]", "result": "decrease"}, {"measurement": "blood neutrophil count", "setting": "NASH patients; [9]", "result": "decrease"}, {"measurement": "liver hydroxyproline content", "setting": "[2]; [7]", "result": "suppressed increase"}, {"measurement": "plasma TIMP-1 content", "setting": "[2]; [7]", "result": "suppressed increase"}, {"measurement": "plasma albumin", "setting": "[2]; [7]", "result": "suppressed increase"}, {"measurement": "plasma choline esterase", "setting": "[2]; [7]", "result": "suppressed increase"}, {"measurement": "plasma hyaluronic acid", "setting": "[2]; [7]", "result": "suppressed increase"}, {"measurement": "plasma total bilirubin", "setting": "[2]; [7]", "result": "suppressed increase"}, {"measurement": "plasma total protein", "setting": "[2]; [7]", "result": "suppressed increase"}, {"measurement": "plasma type Iv collagen", "setting": "[2]; [7]", "result": "suppressed increase"}, {"measurement": "plasma AST", "setting": "[2]", "result": "suppressed increase"}, {"measurement": "plasma ALT", "setting": "[2]", "result": "suppressed increase"}, {"measurement": "fibrosis area of liver", "setting": "[2]; Masson's trichrome stain, EPA-E 1000 mg/kg oral once a day", "result": "suppressed increase"}]}, {"smiles": "CC(=O)Oc1ccccc1C(=O)O", "note": "[acetylsalicylic acid]", "values": [{"measurement": "improvement of the parameters over the control group", "setting": "[3]; acetylsalicylic acid 10 mg/kg oral once a day", "result": "does not exhibit significant improvement"}, {"measurement": "effects on plasma and liver parameters like those of the EPA-E group", "setting": "[2]; acetylsalicylic acid 20 mg/kg oral once a day", "result": "does not exhibit effects like those of the EPA-E group"}, {"measurement": "plasma AST", "setting": "[2]", "result": "exacerbated"}, {"measurement": "plasma ALT", "setting": "[2]", "result": "exacerbated"}]}, {"smiles": "CC(C)c1c(C(=O)Nc2ccccc2)c(-c2ccccc2)c(-c2ccc(F)cc2)n1CC[C@@H](O)C[C@@H](O)CC(=O)O", "note": "[atorvastatin, atorvastatin calcium hydrate]", "values": [{"measurement": "IL-6", "setting": "[3]; [6]", "result": "suppressed increase"}, {"measurement": "TNFα", "setting": "[3]; [6]", "result": "suppressed increase"}, {"measurement": "ferritin", "setting": "[3]; [6]", "result": "suppressed increase"}, {"measurement": "high sensitivity CPR", "setting": "[3]; [6]", "result": "suppressed increase"}, {"measurement": "neutrophil count", "setting": "[3]; [6]", "result": "suppressed increase"}, {"measurement": "thioredoxin", "setting": "[3]; [6]", "result": "suppressed increase"}, {"measurement": "type IV collagen", "setting": "[3]; [6]", "result": "suppressed increase"}]}]}
